Data as given in patent EP0708091A1, “Indoloylguanidine derivatives” (SUMITOMO PHARMACEUTICALS COMPANY, LIMITED, priority 1994, dated 1996).
Structures can show the parent of a compound that is named as a salt.

Target: T1, Na⁺/H⁺ exchanger (Rattus norvegicus, UniProt P26431)
T1 construct: using the vascular smooth muscle cells isolated from the rat thoracic aorta; endogenous in cells; host or cells: primary vascular smooth muscle cells isolated from rat thoracic aorta
Assay: Inhibition of Na+/H+ exchanger activity in vitro (change in cell viability during acid loading)
Assay type: cell-based
Settings: minimum effective concentration (MEC), vascular smooth muscle cells isolated from the rat thoracic aorta
Protocol: Inhibition of Na+/H+ exchanger activity in vitro Method:
The experiment was performed by modifying the method of Mungre et al. described in Exp. Cell Res., 193, 236 (1991). That is, inhibition of the Na⁺/H⁺ exchanger activity was evaluated by the change in cell viability during acid loading, using the vascular smooth muscle cells isolated from the rat thoracic aorta.
The compounds of the present invention shown in Examples were evaluated by the minimum effective concentration (MEC) for the inhibition of the Na⁺/H⁺ exchanger activity.

T1 sequence (P26431 whole entry): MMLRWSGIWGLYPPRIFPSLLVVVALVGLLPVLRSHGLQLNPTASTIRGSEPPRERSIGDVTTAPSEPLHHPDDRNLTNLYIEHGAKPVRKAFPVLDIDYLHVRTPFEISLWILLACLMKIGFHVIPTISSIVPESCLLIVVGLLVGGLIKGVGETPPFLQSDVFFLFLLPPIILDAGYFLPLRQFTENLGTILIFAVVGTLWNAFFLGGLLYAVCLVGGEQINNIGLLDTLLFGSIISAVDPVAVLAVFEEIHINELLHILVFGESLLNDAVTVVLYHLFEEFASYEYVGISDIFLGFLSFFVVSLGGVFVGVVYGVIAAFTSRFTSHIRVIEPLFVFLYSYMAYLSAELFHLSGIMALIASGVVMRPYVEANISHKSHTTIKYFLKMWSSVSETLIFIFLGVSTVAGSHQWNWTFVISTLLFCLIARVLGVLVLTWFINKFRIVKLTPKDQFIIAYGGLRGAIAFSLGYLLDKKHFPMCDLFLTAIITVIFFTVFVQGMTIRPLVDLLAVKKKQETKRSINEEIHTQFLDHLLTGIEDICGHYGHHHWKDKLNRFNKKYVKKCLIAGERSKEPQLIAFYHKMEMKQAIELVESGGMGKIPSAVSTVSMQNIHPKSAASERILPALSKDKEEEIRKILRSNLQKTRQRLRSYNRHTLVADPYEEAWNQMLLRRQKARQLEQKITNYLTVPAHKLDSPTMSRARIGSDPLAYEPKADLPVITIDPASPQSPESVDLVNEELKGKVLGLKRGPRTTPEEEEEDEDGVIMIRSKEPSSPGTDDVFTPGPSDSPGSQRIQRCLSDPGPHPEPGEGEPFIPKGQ

Row | Structure (SMILES) | Inhibition of Na^+/H^+ Exchanger MEC [µM]
1 | Cn1c(C(=O)NC(=N)N)cc2c(Cl)cc(OCCN)cc21 [Example 175, 6-(2-Aminoethoxy)-4-chloro-l-methyl-2-indoloylguanidine dihydrochloride] | 0.03
2 | CN(C)c1nc(N)c(C(=O)N=C(N)N)nc1Cl [Dimethyl amiloride, reference compound] | 3.0
3 | N=C(N)NC(=O)c1cc2ccccc2n1CCN1CCCC1 [Example 144, 1-[2-[(N-Pyrrolidinyl)ethyl]-2-indoloylguanidinedihydrochloride] | >10
4 | NC(N)=NC(=O)c1nc(Cl)c(N2CCCCCC2)nc1N [5-Hexamethylene amiloride, reference compound] | 0.3
5 | CN(C)CCCOc1ccc(Cl)c2cc(C(=O)NC(=N)N)n(C)c12 [Example 74, 4-Chloro-7-(3-dimethylaminopropoxy)-l-methyl-2-indoloylguanidine dihydrochloride] | 0.1
